How the values were obtained:
ETA and ETB receptors = assay: Endothelin binding inhibition assays of the Examples, result stated for ETA and/or ETB; design: species or system human; details: relative to the other compounds listed; in vitro binding assays
Description: (§1) Compounds that are potential endothelin antagonists are identified by testing their ability to compete with ^125I-labeled ET-1 for binding to human ETA receptors or ETB receptors present on isolated cell membranes. The effectiveness of the test compound as an antagonist or agonist of the biological tissue response of endothelin can also be assessed by measuring the effect on endothelin induced contraction of isolated rat thoracic aortic rings. The ability of the compounds to act as antagonists or agonists for ETB receptors can be assess by testing the ability of the compounds are to inhibit endothelin-1 induced prostacyclin release from cultured bovine aortic endothelial cells.
(§2) A. Endothelin Binding Inhibition—Binding Test #1: Inhibition of Binding to ETA Receptors
(§3) TE 671 cells (ATCC Accession No. HTB 139) express ETA receptors. These cells were grown to confluence in T-175 flasks. Cells from multiple flasks were collected by scraping, pooled and centrifuged for 10 min at 190×g. The cells were resuspended in phosphate buffered saline (PBS) containing 10 mM EDTA using a Tenbroeck homogenizer. The suspension was centrifuged at 4° C. at 57,800×g for 15 min, the pellet was resuspended in 5 ml of buffer A (5 mM HEPES buffer, pH 7.4 containing aprotinin (100 KIU/ml)) and then frozen and thawed once. 5 ml of Buffer B (5 mM HEPES Buffer, pH 7.4 containing 10 mM MnCl2 and 0.001% deoxyribonuclease Type 1) was added, the suspension mixed by inversion and then incubated at 37° C. for 30 minutes. The mixture was centrifuged at 57,800×g as described above, the pellet washed twice with buffer A and then resuspended in buffer C (30 mM HEPES buffer, pH 7.4 containing aprotinin (100 KIU/ml) to give a final protein concentration of 2 mg/ml and stored at −70° C. until use.
(§4) The membrane suspension was diluted with binding buffer (30 mM HEPES buffer, pH 7.4 containing 150 mM NaCl, 5 mM MgCl2, 0.5% Bacitracin) to a concentration of 8 μg/50 μl. ^25I-endothelin-1 (3,000 cpm, […]) was added to 50 μl of either: (A) endothelin-1 (for non specific binding) to give a final concentration 80 nM); (B) binding buffer (for total binding); or (C) a test compound (final concentration 1 nM to 100 μM). The membrane suspension (50 μl), containing up to 8 μg of membrane protein, was added to each of (A), (B), or (C). Mixtures were shaken, and incubated at 4° C. for 16-18 hours, and then centrifuged at 4° C. for 25 min at 2,500×g. Alternatively, the incubation was conducted at 24° C. When incubated at 24° C., the IC50 concentrations are 2- to 10-fold higher than when the incubation is conducted at 4° C. This, must be kept in mind when comparing IC50 concentrations among compounds provided herein.
The supernatant, containing unbound radioactivity, was decanted and the pellet counted on a Genesys multiwell gamma counter. The degree of inhibition of binding (D) was calculated according to the following equation: [formula]
Each test was generally performed in triplicate.
(§5) B. Endothelin Binding Inhibition—Binding Test #2: Inhibition of Binding to ETB Receptors
(§6) COS7 cells were transfected with DNA encoding the ETB receptor, The resulting cells, which express the human ETB receptor, were grown to confluence in T-150 flasks. Membrane was prepared as described above. The binding assay was performed as described above using the membrane preparation diluted with binding buffer to a concentration of 1 μg/50 μl.
Briefly, the COS7 cells, described above, that had been transfected with DNA encoding the ETB receptor and express the human ETB receptor on their surfaces were grown to confluence in T-175 flasks. Cells from multiple flasks were collected by scraping, pooled and centrifuged for 10 min at 190×g. The cells were resuspended in phosphate buffered saline (PBS) containing 10 mM EDTA using a Tenbroeck homogenizer. The suspension was centrifuged at 4° C. […]

human ETB receptor = target: T1, human ETB receptor (Homo sapiens, UniProt P24530); assay: Binding Test #2: inhibition of 125I-labeled ET-1 binding to ETB receptors (transfected COS7 cell membranes); details: ETB over ETA; preferably at least 3-fold greater affinity, more preferably 5-fold or more
T1 construct: expressed in transfected cells; host or cells: COS7 cells, membrane preparation
T1 sequence (P24530 27-442): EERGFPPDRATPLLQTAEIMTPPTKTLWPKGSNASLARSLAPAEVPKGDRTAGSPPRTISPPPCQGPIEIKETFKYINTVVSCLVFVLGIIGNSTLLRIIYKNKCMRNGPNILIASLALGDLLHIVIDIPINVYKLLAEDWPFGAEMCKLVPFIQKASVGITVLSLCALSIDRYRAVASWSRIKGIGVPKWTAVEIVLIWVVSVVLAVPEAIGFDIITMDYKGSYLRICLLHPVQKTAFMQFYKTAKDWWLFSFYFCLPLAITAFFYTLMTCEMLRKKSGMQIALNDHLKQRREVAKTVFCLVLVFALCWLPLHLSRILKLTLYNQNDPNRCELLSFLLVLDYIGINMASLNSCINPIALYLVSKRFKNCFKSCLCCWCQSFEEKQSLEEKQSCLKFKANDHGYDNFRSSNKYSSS
Description: as §1, §5, §6
Briefly, the COS7 cells, described above, that had been transfected with DNA encoding the ETB receptor and express the human ETB receptor on their surfaces were grown to confluence in T-175 flasks. Cells from multiple flasks were collected by scraping, pooled and centrifuged for 10 min at 190×g. The cells were resuspended in phosphate buffered saline (PBS) containing 10 mM EDTA using a Tenbroeck homogenizer. The suspension was centrifuged at 4° C. 57,800×g for 15 min, the pellet was resuspended in 5 ml of buffer A (5 mM HEPES buffer, pH 7.4 containing aprotinin (100 KIU/ml)) and then frozen and thawed once. Five ml of Buffer B (5 mM HEPES Buffer, pH 7.4 containing 10 mM MnCl2 and 0.001% deoxyribonuclease Type 1) was added, the suspension mixed by inversion and then incubated at 37° C. for 30 minutes. The mixture was centrifuged at 57,800×g as described above, the pellet washed twice with buffer A and then resuspended in buffer C (30 mM HEPES buffer, pH 7.4 containing aprotinin (100 KIU/ml) to give a final protein concentration of 2 mg/ml.
The binding assay was performed as described above using the membrane preparation diluted to give 1 μg/50 μl of binding buffer.

human ETA receptors = target: T2, human ETA receptors (Homo sapiens, UniProt P25101); assay: Binding Test #1: inhibition of 125I-labeled ET-1 binding to ETA receptors (TE 671 cell membranes); details: ETA over ETB; preferably at least 3-fold greater affinity, more preferably 5-fold or more
T2 construct: endogenous in cells; host or cells: TE 671 cells (ATCC HTB 139), membrane preparation
T2 sequence (P25101 21-427): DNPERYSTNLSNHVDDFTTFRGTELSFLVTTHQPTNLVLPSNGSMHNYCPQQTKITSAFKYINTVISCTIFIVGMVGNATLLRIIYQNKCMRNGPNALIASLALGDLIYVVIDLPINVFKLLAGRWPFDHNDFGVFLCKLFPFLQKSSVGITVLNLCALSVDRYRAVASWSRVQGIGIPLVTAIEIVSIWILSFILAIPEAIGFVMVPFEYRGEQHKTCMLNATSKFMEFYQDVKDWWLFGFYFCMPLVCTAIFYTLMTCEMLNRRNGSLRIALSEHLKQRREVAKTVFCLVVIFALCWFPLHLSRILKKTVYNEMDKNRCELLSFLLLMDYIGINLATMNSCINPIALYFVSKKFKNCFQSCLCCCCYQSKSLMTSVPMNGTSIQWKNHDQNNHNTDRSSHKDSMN
Description: as §1, §2, §3
as §4, with “When incubated at 24° C., the IC50 concentrations are 2- to 10-fold higher than when the incubation is conducted at 4° C. This, must be kept in mind when comparing IC50 concentrations among compounds provided herein.” left out
The supernatant, containing unbound radioactivity, was decanted and the pellet counted on a Genesys multiwell gamma counter. The degree of inhibition of binding (D) was calculated according to the following equation: [formula] […]

[1] = system: non-cardiovascular tissues, such as kidney, adrenal gland, and cerebellum (ETB receptors predominate); details: cited from earlier work

Compound | More active among these compounds (ETA and ETB receptors) | further results
2-[3,4-(methylenedioxy)phenoxy]-6-[2-(1-propenyl)-3,4-(methylenedioxy)phenoxy]benzoic acid [Example 17] | More active | ETB selective (interact with greater affinity with one receptor sub-type than with the other) (human ETB receptor): ETB selective
2-[3,4-(methylenedioxy)phenoxy]-6-[(2-carboxyethyl)-4-methoxyphenoxy]benzoic acid [Example 23] | More active | 
4,6-Bis[2-carboxy-3,4-(methylenedioxy)phenoxy]-2-(methylthio)pyrimidine |  | ETA selective (interact with greater affinity with one receptor sub-type than with the other) (human ETA receptors): ETA selective
4-[2-carboxy-3,4-(methylenedioxy)phenoxy]-6-[3,4-(methylenedioxy)phenoxy]-2-(methylthio)-pyrimidine |  | ETA selective (interact with greater affinity with one receptor sub-type than with the other) (human ETA receptors): ETA selective
COc1ccc(Oc2cccc(Oc3ccc4c(c3)OCO4)c2C(=O)O)cc1 [Example 1, 2-(4-Methoxyphenoxy)-6-[3,4-(methylenedioxy)phenoxy]benzoic acid] | More active | 
Cc1ccc(Oc2cccc(Oc3ccc4c(c3)OCO4)c2C(=O)O)cc1 [Example 2, 2-[3,4-(methylenedioxy)phenoxy]-6-(4-methylphenoxy)benzoic acid] | More active | 
O=C(O)c1c(Oc2ccc3c(c2)OCO3)cccc1Oc1ccc2c(c1)OCO2 [Example 5, 2,6-bis-[3,4-(methylenedioxy)phenoxy]benzoic acid] | More active | 
COc1ccc(Oc2cccc(Oc3ccc(OC)cc3)c2C(=O)O)cc1 [Example 6, 2,6-bis-(4-methoxyphenoxy)benzoic acid] |  | melting point: 222 to 224 °C; ETB selective (interact with greater affinity with one receptor sub-type than with the other) (human ETB receptor): ETB selective
Cc1ccc(Oc2cccc(Oc3ccc4c(c3)OCO4)c2C(=O)O)c(Br)c1 [Example 7, 2-(2-Bromo-4-methylphenoxy)-6-[3,4-(methylenedioxy)phenoxy]benzoic acid] | More active | 
Cc1ccc(Oc2cccc(Oc3ccc(C)cc3)c2C(=O)O)cc1 [Example 8, 2,6-bis-(4-methylphenoxy)benzoic acid] |  | melting point: 205 to 206 °C; ETB selective (interact with greater affinity with one receptor sub-type than with the other) (human ETB receptor): ETB selective
O=C(O)c1c(Oc2ccccc2)cccc1Oc1ccccc1 [Example 9, 2,6-diphenoxybenzoic acid] |  | melting point: 150 to 153 °C
Cc1cccc(Oc2cccc(Oc3ccc4c(c3)OCO4)c2C(=O)O)c1 [Example 11, 2-[3,4-(methylenedioxy)phenoxy]-6-(3-methylphenoxy)benzoic acid] | More active | 
COc1ccc(Sc2cccc(Oc3ccc4c(c3)OCO4)c2C(=O)O)cc1 [Example 12, 2-(4-methoxythiophenoxy)-6-[3,4-(methylenedioxy)phenoxy]benzoic acid] | More active | 
O=C(O)Cc1cccc(Oc2cccc(Oc3ccc4c(c3)OCO4)c2C(=O)O)c1 [Example 13, 2-[(3-Carboxymethyl)phenoxy]-6-[3,4-(methylenedioxy)phenoxy]benzoic acid] |  | ETB selective (interact with greater affinity with one receptor sub-type than with the other) (human ETB receptor): ETB selective; ETA selective (interact with greater affinity with one receptor sub-type than with the other) (human ETA receptors): ETA selective
O=C(O)Cc1ccc(Oc2cccc(Oc3ccc4c(c3)OCO4)c2C(=O)O)cc1 [Example 14, 2-[(4-Carboxymethyl)phenoxy]-6-[3,4-(methylenedioxy)phenoxy]benzoic acid] |  | ETA selective (interact with greater affinity with one receptor sub-type than with the other) (human ETA receptors): ETA selective
CCCc1cc2c(cc1Oc1cccc(Oc3ccc4c(c3)OCO4)c1C(=O)O)OCO2 [Example 18, 2-(3,4-methylenedioxy)phenoxy-6-[2-propyl-4,5-(methylenedioxy)phenoxy]benzoic acid] | More active | 
O=C(O)CCc1cc2c(cc1Oc1cccc(Oc3ccc4c(c3)OCO4)c1C(=O)O)OCO2 [Example 19, 2-(3,4-methylenedioxy)phenoxy-6-[2-carboxyethyl-4,5-(methylenedioxy)phenoxy]benzoic acid] | More active | ETB selective (interact with greater affinity with one receptor sub-type than with the other) (human ETB receptor): ETB selective
O=C(O)/C=C/c1cc2c(cc1Oc1cccc(Oc3ccc4c(c3)OCO4)c1C(=O)O)OCO2 [Example 20, 2-(3,4-methylenedioxy)phenoxy-6-[2-carboxy-trans-ethenyl-4,5-(methylenedioxy)phenoxy]benzoic acid] | More active | 
COc1cccc(Oc2cccc(Oc3ccc4c(c3)OCO4)c2C(=O)O)c1 [Example 26, 2-[3,4-(methylenedioxy)phenoxy]-6-(3-methoxyphenoxy)benzoic acid] | More active | 
(Thr^2,Phe^4,Thr^5,Tyr^6,Lys^7,Tyr^14) endothelin-1 [endothelin-3] |  | extent of inhibition of 125I-labelled endothelin-1 binding [1]: to the same extent
Ethyl 2-[3,4-(methylenedioxy)phenoxy]-6-[2-(carboxyethyl)-4-methoxyphenoxy]benzoate [Example 22] | More active | 
